Here are results for one compound from patent US20080003627A1, “SYSTEM FOR BIOSYNTHESIS OF FIREFLY LU[…] WITH NATURAL L-CYSTEINE OR DERIVATIVES THEREOF AND LU[…] SOLUTIONS CONTAINING THE SYSTEM” (NATIONAL INSTITUTE OF ADVANCED INDUSTRIAL SCIENCE AND …, priority 2004, published 2008).

The target in this test is firefly luciferase (Photinus pyralis, UniProt P08659). The test can be described thus: firefly luminescence reaction (luminescence activity as substrate). The test is classed as biochemical. The settings on record: ATP, Mg ion, luminometer.
Sequence of firefly luciferase (P08659 whole entry): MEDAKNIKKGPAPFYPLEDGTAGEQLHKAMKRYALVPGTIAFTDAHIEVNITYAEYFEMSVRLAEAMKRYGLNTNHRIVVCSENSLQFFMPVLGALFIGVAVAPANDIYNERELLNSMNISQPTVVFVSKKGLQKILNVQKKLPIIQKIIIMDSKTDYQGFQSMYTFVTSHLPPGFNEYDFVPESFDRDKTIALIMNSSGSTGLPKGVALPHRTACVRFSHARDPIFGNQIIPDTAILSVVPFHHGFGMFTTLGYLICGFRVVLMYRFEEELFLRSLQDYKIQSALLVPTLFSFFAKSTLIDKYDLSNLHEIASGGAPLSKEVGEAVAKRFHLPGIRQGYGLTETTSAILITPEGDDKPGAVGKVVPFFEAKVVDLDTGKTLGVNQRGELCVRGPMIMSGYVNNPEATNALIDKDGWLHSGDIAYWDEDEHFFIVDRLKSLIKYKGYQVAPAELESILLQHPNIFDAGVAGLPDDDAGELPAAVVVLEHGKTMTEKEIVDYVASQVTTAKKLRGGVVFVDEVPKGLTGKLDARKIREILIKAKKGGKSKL

Description: In a buffer solution (0.1 M Tris-HCl, pH 8), 10 mM 2-cyano-6-hydroxybenzothiazole, 1 mM L-cysteine, 10 mM COA-SH, 0.1 mg/mL of firefly luciferase and 100 units/mL of swine liver esterase were dissolved, 10 μL of the mixture was dispensed in a tube for measuring the luminescence, and a total volume was made 100 μL by adding the same buffer. An ATP—Mg solution (100 μL, 6 mM ATP—Na, 16 mM MgSO4) was injected thereto to initiate a luminescence reaction, and a luminescence amount was measured using a luminometer AB2200 supplied from ATTO Corporation.

As to `CC(C)(COP(=O)(O)OP(=O)(O)OCC1OC(n2cnc3c(N)ncnc32)C(O)C1OP(=O)(O)O)C(O)C(=O)NCCC(=O)NCCSC(=O)C1CSC(c2nc3ccc(O)cc3s2)=N1` (stereo not shown) [luciferyl-CoA], the “luminescence activity (produces luminescence with luciferase)” value is recorded as “does not produce the luminescence”.
